Experimental data reported in ChEMBL document CHEMBL2363022, “Malaria Box Schistosomiasis Screening Data” (2013).

Columns and labels:
Type in all cases: functional
Schistosoma mansoni [1] = test system: Schistosoma mansoni; design: scale not given here
Schistosoma mansoni [2] = test system: Schistosoma mansoni; design: scale not given here; remark: listed apart in the source
Schistosoma mansoni [3] = test system: Schistosoma mansoni; design: scale not given here; remark: listed apart in the source
Schistosoma mansoni [4] = experiment: MMV: Toxicity @ 5 uM to 4-5 Schistosoma mansoni adult males after 24 h on a scale of 0 (none) - 4 (most). Includes short descriptors of effects as judged visually (PMID:19597541). Only those Malaria box 'drug-like' cpds yielding the most severe phenotypes vs. somules were tested. Caffrey group UCSF.
Schistosoma mansoni [5] = experiment: MMV: Toxicity @ 5 uM to 4-5 Schistosoma mansoni adult males after 48 h on a scale of 0 (none) - 4 (most). Includes short descriptors of effects as judged visually (PMID:19597541). Only those Malaria box 'drug-like' cpds yielding the most severe phenotypes vs. somules were tested. Caffrey group UCSF.
Schistosoma mansoni [6] = experiment: MMV: Toxicity @ 5 uM to 4-5 Schistosoma mansoni adult males after 72 h on a scale of 0 (none) - 4 (most). Includes short descriptors of effects as judged visually (PMID:19597541). Only those Malaria box 'drug-like' cpds yielding the most severe phenotypes vs. somules were tested. Caffrey group UCSF.
Schistosoma mansoni [7] = experiment: (§1) MMV: Motility assay. Percent change (relative to DMSO controls) @ 5 uM of movement of 4-5 Schistosoma mansoni adult males after 24 h as measured by the Consensus Voting Luminance Difference algorithm available on WormAssay (PMID:22303493). Occasional incongruence ocurrs between the motility scores and the visually adjudicated 'toxicity scores'. In these cases the 'toxicity score' should be prioritized. Only those Malaria box 'Drug-like' cpds yielding the most severe phenotypes vs. somules were tested. Caffrey group UCSF.
Schistosoma mansoni [8] = experiment: as §1, with “48” for “24”
Schistosoma mansoni [9] = experiment: as §1, with “72” for “24”

SMILES | Toxicity (Schistosoma mansoni [1]) | Toxicity (Schistosoma mansoni [2]) | Toxicity (Schistosoma mansoni [3]) | Toxicity (Schistosoma mansoni [4]) | Toxicity (Schistosoma mansoni [5]) | Toxicity (Schistosoma mansoni [6]) | Motility (Schistosoma mansoni [7]) | Motility (Schistosoma mansoni [8]) | Motility (Schistosoma mansoni [9])
CCCCc1ccc(NS(=O)(=O)c2cc3c4c(c2)CCN4C(=O)CC3)cc1 | 2 | 0 | 0 | 0 | 0 | 0 | 109.4 | 170.6 | 80.4
CCN(CC)CCn1c(=N)n(CC(O)c2ccc(Cl)c(Cl)c2)c2ccccc21.Cl (stereo not drawn) | 3 | 4 | 4 | 0 | 1 | 0 | 68.1 | 7.4 | 66.9
Cl.Clc1cc(Br)ccc1-c1ccc(CNCC2CCNCC2)o1 | 4 | 4 | 4 | 2 | 3 | 2 | 27.8 | 52.5 | On sides, dark
CC(C)(C)CC(C)(C)NCC(O)COc1ccc2c(c1)CCC2.Cl (stereo not drawn) | 2 | 2 | 4 | 0 | 1 | 1 | 146 | 153 | overactive
CC(C)OCc1cc(CN2CCN(c3cccc(Cl)c3)CC2)c(O)c2ncccc12 | 2 | 3 | 4 | 2 | 2 | 2 | 27.4 | 55.2 | 59.8
O=C(Nc1ccc(F)c(Cl)c1)Nc1ccc(Cl)c(Cl)c1 | 3 | 3 | 4 | 2 | 4 | 4 | 3.2 | 3.2 | 2.6
Cc1cc(C)c2nc(N3CCC(C(=O)NCCCN4CCC(N5CCCCC5)CC4)CC3)sc2c1 | 4 | 4 | 4 | 0 | 0 | 0 | 97.4 | 125.2 | 117
COc1ccc(Nc2nc(NCc3ccccc3)c3ccccc3n2)cc1 | 2 | 4 | 4 | 0 | 0 | 0 | 100 | 105.7 | No effect
Oc1c(CN2CCN(c3ccccc3F)CC2)cc(Br)c2cccnc12 | 0 | 4 | 4 | 3 | 4 | 4 | 231 | 54.2 | 54.8
CC(C)(C)CC(C)(C)NCC(O)COc1ccc(Cl)cc1Cl (stereo not drawn) | 0 | 4 | 4 | 0 | 1 |  |  | 53 | 
O=C(NC(c1ccccc1)c1ccc2cccnc2c1O)c1ccccc1 (stereo not drawn) | 0 | 3 | 4 | 0 | 3 | 4 | 74 | 16.1 | Slow, on sides, dark, tegument damage
COc1cc2c(cc1OC)C1=NNC(=O)C1=NC(C)(C)C2 | 0 | 4 | 4 | 0 | 0 | 0 | 140 | 120 | No effect
COc1ccc(CCN2CCC(CN(C)Cc3cnn(-c4ccccc4)c3)CC2)cc1 | 2 | 1 | 1 | 0 | 0 | 0 | 33.8 | 114.8 | 70.2
c1ccc2c(NCCc3c[nH]c4ccccc34)c3ccccc3nc2c1 | 3 | 4 | 4 |  |  |  |  |  | 
Nc1ccc(-c2nc3cc(Oc4ccc(Oc5ccc6[nH]c(-c7ccc(N)cc7)nc6c5)cc4)ccc3[nH]2)cc1 | 0 | 0 | 2 |  |  |  |  |  | 
Oc1c2c(nc3cc(-c4ccccc4)nn13)CCCC2 | 0 | 0 | 0 |  |  |  |  |  | 
CCOc1ccc(N2C(N)=NC(N)=NC2(C)C)cc1.Cl | 0 | 0 | 0 |  |  |  |  |  | 
OC1CCCCC1C1(NC(=S)Nc2ccccc2)CCCCC1 (stereo not drawn) | 0 | 0 | 0 |  |  |  |  |  | 
CCOC(=O)c1cnc2ccc(OC)cc2c1NCc1ccccc1 | 1 | 0 | 1 |  |  |  |  |  | 
OC(CNC1CCCCC1)Cn1c2ccccc2c2ccccc21 (stereo not drawn) | 0 | 0 | 0 |  |  |  |  |  | 
CN(C)c1ccc(N=Cc2ccc(N3CCOCC3)cc2)cc1 | 0 | 0 | 0 |  |  |  |  |  | 
CCCn1c(=N)c(C(=O)NC2CCCCC2)cc2c(=O)n3cccc(C)c3nc21 | 0 | 0 | 0 |  |  |  |  |  | 
COc1nc(Nc2ccc(C(C)C)cc2)nc(OC)n1 | 0 | 0 | 0 |  |  |  |  |  | 

SMILES | Toxicity (Schistosoma mansoni [1]) | Toxicity (Schistosoma mansoni [2]) | Toxicity (Schistosoma mansoni [3]) | Toxicity (Schistosoma mansoni [4]) | Toxicity (Schistosoma mansoni [5]) | Toxicity (Schistosoma mansoni [6]) | Motility (Schistosoma mansoni [7]) | Motility (Schistosoma mansoni [8]) | Motility (Schistosoma mansoni [9])
CCOC(=O)C1=C(c2ccccc2)N=c2sc(=Cc3cc(C)n(-c4ccc(F)cc4)c3C)c(=O)n2C1c1cccc(OC)c1OC (stereo not drawn) | 0 | 0 | 0 |  |  |  |  |  | 
O=C(NCc1ccco1)C1CCN(S(=O)(=O)c2ccc(Cl)cc2)CC1 | 0 | 0 | 0 |  |  |  |  |  | 
COc1ccc2c(c1)C1(Nc3ccccc3-c3nc4ccccc4n31)C(=O)N2 (stereo not drawn) | 0 | 0 | 0 |  |  |  |  |  | 
O=C(CCc1ccco1)NC1CCN(CC2(c3ccc(Cl)cc3)CCC2)CC1 | 0 | 0 | 0 |  |  |  |  |  | 
CCn1c(CN2CCN(Cc3ccccc3)CC2)nc2cc(NC(=O)c3cccs3)ccc21 | 0 | 0 | 0 |  |  |  |  |  | 
Cc1c(C)n(Cc2ccc(F)cc2)c2ccc(C(=O)NCc3ccco3)cc12 | 1 | 2 | 2 |  |  |  |  |  | 
O=C(CCc1ccccc1)c1ccccc1OCC(O)CN1CCCCC1 (stereo not drawn) | 1 | 0 | 4 |  |  |  |  |  | 
CCc1ccc(Nc2cc(C)c3ccc(O)cc3n2)cc1.Cl | 2 | 2 | 3 |  |  |  |  |  | 
CN(N=O)C1=C(NC2CCCCC2)C(=O)c2ccccc2C1=O | 0 | 0 | 0 |  |  |  |  |  | 
O=C(O)C1Cc2c([nH]c3ccccc23)C(c2ccc(Cl)cc2Cl)N1 (stereo not drawn) | 0 | 0 | 0 |  |  |  |  |  | 
O=C(Nc1ccccc1O)c1ccc(Oc2cccc(C(=O)Nc3ccccc3O)c2)cc1 | 0 | 2 | 2 |  |  |  |  |  | 
CCOC(=O)c1cn(CC)c2cc(N3CCCCC3)c(F)cc2c1=O | 0 | 0 | 0 |  |  |  |  |  | 
CC(C)(C)c1ccc(C2CC3=Nc4ccccc4N(C(=O)c4ccccc4Cl)C(c4ccc(F)cc4)C3=C(O)C2)cc1 (stereo not drawn) | 1 | 1 | 4 |  |  |  |  |  | 
CC(C)(C)c1ccc2c(c1)CN(Cc1ccc(Cl)cc1)CO2 | 0 | 0 | 0 |  |  |  |  |  | 
OCCNc1nc(Nc2ccc(Cl)c(Cl)c2)nc2ccccc12 | 2 | 0 | 4 |  |  |  |  |  | 
CCCCN(CCCC)S(=O)(=O)c1ccc(NC(=O)c2ccco2)cc1 | 0 | 0 | 0 |  |  |  |  |  | 
CCOc1ccc(-c2nc(NC(=O)c3cccc(S(C)(=O)=O)c3)sc2C)cc1 | 0 | 0 | 0 |  |  |  |  |  | 
CCN(CC)CCNc1ncnc2c1[nH]c1ccc(Cl)cc12 | 0 | 0 | 0 |  |  |  |  |  | 
Cc1ccc(NC(=O)Nc2cccc(Cl)c2)cc1F | 1 | 0 | 0 |  |  |  |  |  | 
CCOC(=O)c1c[nH]c2c(CC)cccc2c1=O | 0 | 0 | 3 |  |  |  |  |  | 
CCn1c(SCC(=O)Nc2cc(C(F)(F)F)ccc2Cl)nc2ccccc2c1=O | 0 | 0 | 0 |  |  |  |  |  | 
CC(C)(C)C(=O)Nc1ccc(C(=O)Nc2cccc(-c3nc4ccccc4[nH]3)c2)cc1 | 0 | 0 | 2 |  |  |  |  |  | 
Cc1ccc(N2C(=O)C3C(C2=O)C2(c4ccccc4)C(=O)C3(c3ccccc3)C(c3ccccc3)=C2c2ccccc2)cc1 (stereo not drawn) | 1 | 1 | 1 |  |  |  |  |  | 
